Source: the supplement of paper PMC11451515

Tested on: SEM cells
Test: cell viability relative to DMSO control; higher = less cytotoxic
Conditions: 48 h
Outline: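 Viability is expressed as a percentage of DMSO wells within each plate, and cell-free wells serve as background. Seeding densities in the 1536-well plates (5 μl) were 500 cells/well for NOMO1 or SEM leukemia cells and 1000 cells/well for P12-Ichikawa. Each line was adapted for at least four passages in each medium. Library compounds in DMSO were pin-dosed at 47 μM to 0.79 nM (11 points, threefold), and CellTiter-Glo One luminescence was read after 48 h at 37°C.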

[1] = RPMI 5 mM glucose + 10% FBS, 0.000781 µM
[2] = RPMI 5 mM glucose + 10% FBS, 0.00234 µM
[3] = RPMI 5 mM glucose + 10% FBS, 0.00702 µM
[4] = RPMI 5 mM glucose + 10% FBS, 0.0211 µM
[5] = RPMI 5 mM glucose + 10% FBS, 0.0632 µM
[6] = RPMI 5 mM glucose + 10% FBS, 0.19 µM
[7] = RPMI 5 mM glucose + 10% FBS, 0.569 µM
[8] = RPMI 5 mM glucose + 10% FBS, 1.71 µM
[9] = RPMI 5 mM glucose + 10% FBS, 5.12 µM
[10] = RPMI 5 mM glucose + 10% FBS, 15.4 µM
[11] = RPMI 5 mM glucose + 10% FBS, 46.1 µM
[12] = RPMI 5 mM glucose + 10% dialyzed FBS, 0.000781 µM
[13] = RPMI 5 mM glucose + 10% dialyzed FBS, 0.00234 µM
[14] = RPMI 5 mM glucose + 10% dialyzed FBS, 0.00702 µM
[15] = RPMI 5 mM glucose + 10% dialyzed FBS, 0.0211 µM
[16] = RPMI 5 mM glucose + 10% dialyzed FBS, 0.0632 µM
[17] = RPMI 5 mM glucose + 10% dialyzed FBS, 0.19 µM
[18] = RPMI 5 mM glucose + 10% dialyzed FBS, 0.569 µM
[19] = RPMI 5 mM glucose + 10% dialyzed FBS, 1.71 µM
[20] = RPMI 5 mM glucose + 10% dialyzed FBS, 5.12 µM
[21] = RPMI 5 mM glucose + 10% dialyzed FBS, 15.4 µM
[22] = RPMI 5 mM glucose + 10% dialyzed FBS, 46.1 µM
[23] = HPLM + 10% dialyzed FBS, 0.000781 µM
[24] = HPLM + 10% dialyzed FBS, 0.00234 µM
[25] = HPLM + 10% dialyzed FBS, 0.00702 µM
[26] = HPLM + 10% dialyzed FBS, 0.0211 µM
[27] = HPLM + 10% dialyzed FBS, 0.0632 µM
[28] = HPLM + 10% dialyzed FBS, 0.19 µM
[29] = HPLM + 10% dialyzed FBS, 0.569 µM
[30] = HPLM + 10% dialyzed FBS, 1.71 µM
[31] = HPLM + 10% dialyzed FBS, 5.12 µM
[32] = HPLM + 10% dialyzed FBS, 15.4 µM
[33] = HPLM + 10% dialyzed FBS, 46.1 µM

| SMILES | cell viability [1] [%] | cell viability [2] [%] | cell viability [3] [%] | cell viability [4] [%] | cell viability [5] [%] | cell viability [6] [%] | cell viability [7] [%] | cell viability [8] [%] | cell viability [9] [%] | cell viability [10] [%] | cell viability [11] [%] | cell viability [12] [%] | cell viability [13] [%] | cell viability [14] [%] | cell viability [15] [%] | cell viability [16] [%] | cell viability [17] [%] | cell viability [18] [%] | cell viability [19] [%] | cell viability [20] [%] | cell viability [21] [%] | cell viability [22] [%] | cell viability [23] [%] | cell viability [24] [%] | cell viability [25] [%] | cell viability [26] [%] | cell viability [27] [%] | cell viability [28] [%] | cell viability [29] [%] | cell viability [30] [%] | cell viability [31] [%] | cell viability [32] [%] | cell viability [33] [%] |
| --- | --- | --- | --- | --- | --- | --- | --- | --- | --- | --- | --- | --- | --- | --- | --- | --- | --- | --- | --- | --- | --- | --- | --- | --- | --- | --- | --- | --- | --- | --- | --- | --- | --- |
| NC(=O)N1c2ccccc2CC(=O)c2ccccc21 | 124 | 135 | 121 | 132 | 126 | 123 | 139 | 137 | 137 | 161 | 142 | 110 | 116 | 114 | 117 | 129 | 118 | 105 | 124 | 122 | 123 | 147 |  |  |  |  |  |  |  |  |  |  |  |
| CNC(=O)[C@H](Cc1ccccc1)NC(=O)[C@H](CC(C)C)[C@H](CSc1cccs1)C(=O)NO | 95.9 | 75.4 | 96.3 | 105 | 74.8 | 90.6 | 89.8 | 97.6 | 77.7 | 45.8 | 25.4 | 86.5 | 69.4 | 75.4 | 82.2 | 67.2 | 81.7 | 90.6 | 78.4 | 70.6 | 40.4 | 21.5 | 83 | 82.9 | 90 | 96 | 87.5 | 110 | 100 | 95.7 | 80.4 | 57.7 | 24.5 |
| O=C(O)c1ccc2cc(-c3ccc(O)c(C45CC6CC(CC(C6)C4)C5)c3)ccc2c1 | 120 | 129 | 114 | 118 | 118 | 93.1 | 41.7 | 19.8 | 10.5 | 9.46 | 8.21 |  |  |  |  |  |  |  |  |  |  |  |  |  |  |  |  |  |  |  |  |  |  |
| O=C1Nc2ccccc2/C1=C1\Nc2ccccc2C1=O | 104 | 87.4 | 90.6 | 87.5 | 90.1 | 79.4 | 84 | 71.2 | 81.4 | 78.4 | 77.7 | 89.2 | 91.7 | 85.2 | 85.4 | 82.5 | 70.6 | 60.6 | 67 | 74.4 | 86 | 80.3 | 82.1 | 85.1 | 85.5 | 84.9 | 80.4 | 64.2 | 63.3 | 75 | 73.9 | 86.8 | 69.8 |
| COc1cc(N2CCC(O)CC2)ccc1Nc1cc(Nc2ccccc2[S+](=O)([O-])C(C)C)c2cc[nH]c2n1 |  |  |  |  |  |  |  |  |  |  |  | 93.2 | 94.6 | 82.4 | 96.8 | 86.3 | 60.7 | 27.6 | 81.1 | 53.9 | 21.1 | 18.3 | 87.5 | 71.5 | 79.4 | 79.2 | 81.4 | 58.7 | 34.3 | 83.4 | 44 | 17.7 | 22.2 |
| N[C@@H](C(=O)N[C@H]1[C@H]2SC\C(=C(/N2C1=O)C(O)=O)Cl)C3=CC=CC=C3 |  |  |  |  |  |  |  |  |  |  |  | 119 | 135 | 117 | 149 | 137 | 126 | 147 | 150 | 120 | 131 | 129 | 104 | 101 | 118 | 108 | 117 | 110 | 118 | 108 | 115 | 128 | 132 |
| CCCCCCCCCCCC(CC1OC(=O)C1CCCCCC)OC(=O)C(CC(C)C)NC=O (stereo not drawn) | 82.2 | 86.8 | 96.6 | 86.6 | 86.9 | 91.2 | 79.9 | 76.2 | 48.2 | 24.9 | 6.99 | 86.9 | 90.5 | 101 | 82.1 | 105 | 99.4 | 108 | 87.6 | 64.8 | 38.1 | 7.62 | 86.9 | 82.3 | 96.1 | 99 | 92.8 | 98.8 | 91.4 | 98 | 83.2 | 65.1 | 10.1 |
| Cc1ccc(NC(=O)C2(c3ccc4c(c3)OC(F)(F)O4)CC2)nc1-c1cccc(C(=O)O)c1 | 87.2 | 86.6 | 91.6 | 91.5 | 62.6 | 11.1 | 10.5 | 10.5 | 8.17 | 7.53 | 5.47 | 97.9 | 98.3 | 97.7 | 107 | 71.9 | 14.9 | 13.2 | 16.6 | 9.71 | 8.66 | 6.45 | 106 | 87.4 | 109 | 111 | 93.5 | 13.7 | 16.4 | 16.7 | 9.88 | 9.04 | 6.17 |
| CN1CCCN(C(=O)c2cccc(-c3ccc(/C=C4/C(=O)Nc5ccc(Cl)cc54)o3)c2)CC1 | 90.2 | 117 | 106 | 119 | 127 | 112 | 77.2 | 48 | 16.7 | 5.69 | 3.36 | 110 | 108 | 115 | 106 | 114 | 115 | 75.7 | 62.9 | 20.4 | 5.5 | 3.68 | 98.9 | 106 | 109 | 101 | 118 | 107 | 84.1 | 71.7 | 48.4 | 22.8 | 2.97 |
| COc1cc2ncnc(-n3nc(-c4ccccn4)nc3N)c2cc1OC | 105 | 103 | 114 | 100 | 85.8 | 106 | 91.2 | 39.1 | 3.56 | 1.61 | 1.33 | 83.2 | 93.8 | 95.1 | 85.7 | 81.9 | 99.8 | 83.6 | 65.7 | 9.89 | 11.4 | 1.21 | 75.1 | 95.7 | 96.7 | 94.2 | 94.9 | 103 | 79.3 | 83.7 | 35 | 45 | 1.68 |
| O=C(NC1CCNCC1)c1n[nH]cc1NC(=O)c1c(Cl)cccc1Cl |  |  |  |  |  |  |  |  |  |  |  | 108 | 97.6 | 126 | 115 | 118 | 121 | 129 | 24.6 | 7.87 | 5.31 | 3.76 | 93 | 95.9 | 103 | 127 | 118 | 119 | 98.8 | 16.4 | 7.23 | 5.22 | 3.82 |
| COc1cc(N2CCC(C(N)=O)CC2)ccc1Nc1nc(N)c(Cl)c(Nc2ccccc2[S+](=O)([O-])C(C)C)n1 | 103 | 109 | 107 | 104 | 97.6 | 108 | 120 | 92.9 | 43 | 6.28 | 3.46 | 74.8 | 85.1 | 94.3 | 76.9 | 88.5 | 88.8 | 99.4 | 86 | 69 | 13.2 | 2.73 | 81.4 | 83.3 | 87.8 | 96.1 | 82.2 | 104 | 97.6 | 84.1 | 66.5 | 13.3 | 3.39 |
| CN(C)Cc1ccc(-c2nc3cccc4c3n2CCNC4=O)cc1 | 103 | 106 | 119 | 117 | 109 | 127 | 94.7 | 120 | 129 | 109 | 115 | 91.4 | 96.3 | 107 | 94.7 | 97.8 | 107 | 93 | 98.7 | 105 | 110 | 98.3 | 100 | 105 | 93.5 | 114 | 114 | 118 | 122 | 121 | 127 | 119 | 113 |
| CN(C)CCOC(c1ccccc1)c1ccccc1 | 107 | 107 | 113 | 105 | 111 | 114 | 104 | 117 | 94.1 | 116 | 97.5 | 104 | 96.8 | 115 | 121 | 119 | 114 | 122 | 102 | 94.8 | 94.4 | 92 | 90.4 | 90.5 | 108 | 110 | 106 | 98.1 | 97.1 | 94.3 | 91.8 | 92.9 | 90.3 |
| Cc1ccc(NC(=O)c2ccc(CN3CCN(C)CC3)cc2)cc1Nc1nccc(-c2cccnc2)n1 | 81.2 | 114 | 134 | 134 | 124 | 140 | 115 | 114 | 109 | 110 | 99.4 | 72 | 103 | 100 | 94.7 | 114 | 107 | 96.6 | 112 | 80.1 | 100 | 86.6 | 68.4 | 92.2 | 114 | 101 | 104 | 111 | 96.5 | 101 | 99.2 | 101 | 93.9 |
| CCCCN(CCCC)CCC(O)c1cc2c(Cl)cc(Cl)cc2c2cc(C(F)(F)F)ccc12 (stereo not drawn) | 109 | 105 | 107 | 115 | 116 | 141 | 48.4 | 52 | 111 | 89.7 | 89 | 92.1 | 116 | 109 | 110 | 105 | 118 | 46.2 | 48.3 | 104 | 83.1 | 105 | 92.5 | 93.3 | 84.3 | 104 | 108 | 122 | 36.2 | 61.7 | 117 | 91.3 | 109 |
| Fc1ccc(C(c2ccc(F)cc2)N2CCN(C/C=C/c3ccccc3)CC2)cc1 |  |  |  |  |  |  |  |  |  |  |  |  |  |  |  |  |  |  |  |  |  |  | 113 | 126 | 109 | 102 | 116 | 76.8 | 111 | 109 | 55.8 | 96.2 | 81.6 |
